Key:
[1] = xn = mol fraction of the nth substance listed; details: 100 kPa, Liquid; for viscosity: Capillary tube (Ostwald / Ubbelohde) method; for mass density: Vibrating tube method
[2] = relative permittivity at various frequencies (dimensionless); xn = mol fraction of the nth substance listed; details: 100 kPa, Liquid, Frequency=30 MHz, Parallel plate capacitor

NC1CCCCC1 [cyclohexylamine] + CO
Details | mass density, [1] [kg/m3] | relative permittivity, [2] | viscosity, [1] [mPa·s]
293.15 K, x2 = 0 | 866.86 | 4.65 | 2.142
293.15 K, x2 = 0.0666 | 867.932 | – | 2.16
293.15 K, x2 = 0.0702 | – | 5.34 | –
293.15 K, x2 = 0.1108 | 868.284 | – | 2.17
293.15 K, x2 = 0.1177 | – | 5.88 | –
293.15 K, x2 = 0.2006 | – | 7.01 | –
293.15 K, x2 = 0.2089 | 869.337 | – | 2.18
293.15 K, x2 = 0.3043 | 869.454 | – | 2.19
293.15 K, x2 = 0.3049 | – | 8.78 | –
293.15 K, x2 = 0.4041 | – | 10.87 | –
293.15 K, x2 = 0.4097 | 868.83 | – | 2.16
293.15 K, x2 = 0.4479 | 868.248 | – | 2.13
293.15 K, x2 = 0.493 | 867.202 | – | 2.07
293.15 K, x2 = 0.4986 | – | 13.26 | –
293.15 K, x2 = 0.5392 | – | 14.55 | –
293.15 K, x2 = 0.5478 | 865.137 | – | 1.99
293.15 K, x2 = 0.5961 | 862.688 | – | 1.89
293.15 K, x2 = 0.597 | – | 16.28 | –
293.15 K, x2 = 0.659 | 858.061 | – | 1.7
293.15 K, x2 = 0.6609 | – | 18.6 | –
293.15 K, x2 = 0.6986 | – | 19.95 | –
293.15 K, x2 = 0.7014 | 853.915 | – | 1.56
293.15 K, x2 = 0.746 | – | 21.72 | –
293.15 K, x2 = 0.798 | 841.114 | – | 1.22
293.15 K, x2 = 0.7997 | – | 23.89 | –
293.15 K, x2 = 0.8572 | – | 26.33 | –
293.15 K, x2 = 0.8985 | – | 28.32 | –
293.15 K, x2 = 0.8992 | 820.891 | – | 0.89
293.15 K, x2 = 0.949 | – | 30.74 | –
293.15 K, x2 = 0.9503 | 807.371 | – | 0.72
298.15 K, x2 = 0 | 862.315 | 4.56 | 1.908
298.15 K, x2 = 0.0666 | 863.427 | – | 1.92
298.15 K, x2 = 0.0702 | – | 5.23 | –
298.15 K, x2 = 0.1108 | 863.705 | – | 1.93
298.15 K, x2 = 0.1177 | – | 5.75 | –
298.15 K, x2 = 0.2006 | – | 6.84 | –
298.15 K, x2 = 0.2089 | 864.848 | – | 1.94
298.15 K, x2 = 0.3043 | 864.932 | – | 1.94
298.15 K, x2 = 0.3049 | – | 8.55 | –
298.15 K, x2 = 0.4041 | – | 10.58 | –
298.15 K, x2 = 0.4097 | 864.276 | – | 1.91
298.15 K, x2 = 0.4479 | 863.674 | – | 1.88
298.15 K, x2 = 0.493 | 862.605 | – | 1.83
298.15 K, x2 = 0.4986 | – | 12.88 | –
298.15 K, x2 = 0.5392 | – | 14.1 | –
298.15 K, x2 = 0.5478 | 860.518 | – | 1.76
298.15 K, x2 = 0.5961 | 858.069 | – | 1.67
298.15 K, x2 = 0.597 | – | 15.73 | –
298.15 K, x2 = 0.659 | 853.437 | – | 1.52
298.15 K, x2 = 0.6609 | – | 18.05 | –
298.15 K, x2 = 0.6986 | – | 19.34 | –
298.15 K, x2 = 0.7014 | 849.321 | – | 1.4
298.15 K, x2 = 0.746 | – | 21.14 | –
298.15 K, x2 = 0.798 | 836.513 | – | 1.11
298.15 K, x2 = 0.7997 | – | 23.16 | –
298.15 K, x2 = 0.8572 | – | 25.55 | –
298.15 K, x2 = 0.8985 | – | 27.5 | –
298.15 K, x2 = 0.8992 | 816.251 | – | 0.78
298.15 K, x2 = 0.949 | – | 29.87 | –
298.15 K, x2 = 0.9503 | 802.691 | – | 0.67
303.15 K, x2 = 0 | 857.774 | 4.47 | 1.697
303.15 K, x2 = 0.0666 | 858.919 | – | 1.71
303.15 K, x2 = 0.0702 | – | 5.13 | –
303.15 K, x2 = 0.1108 | 859.196 | – | 1.71
303.15 K, x2 = 0.1177 | – | 5.63 | –
303.15 K, x2 = 0.2006 | – | 6.68 | –
303.15 K, x2 = 0.2089 | 860.385 | – | 1.72
303.15 K, x2 = 0.3043 | 860.42 | – | 1.72
303.15 K, x2 = 0.3049 | – | 8.32 | –
303.15 K, x2 = 0.4041 | – | 10.29 | –
303.15 K, x2 = 0.4097 | 859.728 | – | 1.69
303.15 K, x2 = 0.4479 | 859.094 | – | 1.66
303.15 K, x2 = 0.4931 | 858.005 | – | 1.62
303.15 K, x2 = 0.4986 | – | 12.47 | –
303.15 K, x2 = 0.5392 | – | 13.66 | –
303.15 K, x2 = 0.5478 | 855.9 | – | 1.56
303.15 K, x2 = 0.5966 | 853.451 | – | 1.48
303.15 K, x2 = 0.597 | – | 15.28 | –
303.15 K, x2 = 0.659 | 848.818 | – | 1.35
303.15 K, x2 = 0.6609 | – | 17.5 | –
303.15 K, x2 = 0.6986 | – | 18.73 | –
303.15 K, x2 = 0.7014 | 844.723 | – | 1.26
303.15 K, x2 = 0.746 | – | 20.47 | –
303.15 K, x2 = 0.798 | 831.905 | – | 1.04
303.15 K, x2 = 0.7997 | – | 22.46 | –
303.15 K, x2 = 0.8535 | – | 24.61 | –
303.15 K, x2 = 0.8985 | – | 26.7 | –
303.15 K, x2 = 0.8992 | 811.617 | – | 0.75
303.15 K, x2 = 0.949 | – | 28.96 | –
303.15 K, x2 = 0.9503 | 798.008 | – | 0.62

Reference: the NIST ThermoML archive (doi:10.1016/j.tca.2016.03.002)
